# Measurements from patent US20260137790A1, “MIXED VASOPRESSIN RECEPTOR AGONIST-ANTAGONIST FOR MODULATING MEAN ARTERIAL PRESSURE” (FERRING B.V., priority 2022, published 2026).
# Read-outs that look alike come from different tables or passages of the source. Starred links: 1 amine or outer side, 2 acyl side, 3 side chain; linkers in the order of their positions; H or OH if unused. Positions of bridges follow the written chain, without caps; N, C: chain ends. Non-standard residues stand in square brackets, D forms with d. Residues, ends and D or L forms follow the SMILES beside them. Groups on a side chain read outwards from the residue. Chains are numbered I, II in the order given. *: point of attachment. X1 = CC(=O)NCCCC[C@H](NC(=O)CC[C@H](N)C(N)=O)C(=O)*; isoGln = NC(=O)[C@H](CCC(=O)[*:2])N[*:1]; εLys = N[C@@H](CCCCN[*:1])C(=O)[*:2]; Dab = NCC[C@H](N)C(=O)O; PhAc = O=C(Cc1ccccc1)*
# Experiments:
# [1] = SC (bolus) injection of high/low buffer compositions in rats: bioavailability, M1 formation; assay type: in vivo, rat; settings: for bioavailability: rat, in vivo, sc, bioavailability of Compound 1, rats
# [2] = Metabolite M1 formation in healthy rats after IV bolus and SC (bolus) injection; assay type: in vivo; settings: rat
# Text: A similar study in healthy rats was used to evaluate the differences between metabolite formation of Compound 1 after IV bolus and SC (bolus) injection.
# [3] = human, in vivo; for AUC: M1 AUC; for Tmax: M1 tmax
# Method: (§1) The trial comprised two treatment periods, treatment Period 1 and treatment Period 2 (see FIG. 1).
# (§2) The study was conducted in two periods where the treatment in Period 1 was administered as an intravenous infusion, and the treatment in Period 2 was administered as subcutaneous injections. The trial comprised 5 ascending dose panels, each dose panel comprising 8 healthy subjects (6 active, 2 placebo). A new cohort of subjects was used for each dose panel.
# (§3) If no safety concerns arose, as judged by the Investigator, the remaining subjects in that dose group were randomized and treated according to the randomization and protocol in a staggered dosing manner.
# (§4) Treatment period 2: After a resting period of 2-18 days each subject received a once daily subcutaneous dose for 5 days of the same treatment as in Period 1. The dose was selected to prevent the exposure to exceed the intravenous exposure. […] A SRC evaluated the safety and tolerability of the compound after the completion of all subjects in the dose group.
# (§5) The continuation of the same subjects from intravenous to subcutaneous administration was selected to get an as reliable as possible estimate of the bioavailability (F) in the small groups outlined.
# (§6) The intravenous dose to the first dose panel was the lowest dose giving a clear signal of pharmacological activity in the preceding trial. The administration was performed by using a piston-driven syringe auto-infusion pump. The administered volume was recorded for each subject.
# (§7) In Period 2, subjects received a once-daily subcutaneous injection for 5 days of the same treatment as in Period 1 at different locations on the abdomen (Table 5). The subcutaneous doses were selected based on data from a previous trial.
# [4] = in vivo
# Method: as §1, §2, §3, §4, §5, §6, §7
# [5] = tested on: adult male cynomolgus monkeys; assay: Telemetry MAP in healthy monkeys, Compound 1 versus terlipressin; assay type: in vivo, cynomolgus monkey; settings: monkey
# Method: The in-life portion of the study was performed over multiple dosing sessions using six non-naive adult male cynomolgus monkeys. Animals were previously (3-4 weeks before study start) instrumented with indwelling pressure telemetry devices and trained to be restrained in chairs. Animals had access to food and drinking water ad libitum.
# Stock solutions were diluted in saline on the day of administration. Animals with indwelling pressure telemetry devices were trained to be restrained in chairs for 8-h periods.
# On the day of administration, animals were restrained, and telemetric measurements were collected continuously starting ≥2 h before administration. Baseline values of arterial pressure (diastolic and systolic), heart rate, and body temperature were obtained. […].
# The data reported herein were collected over 19 dosing sessions of four animals each, using a total of six monkeys. Animals were repeat dosed in a crossover design with at least one animal receiving vehicle for each round; the animal receiving vehicle was varied between rounds. A 48- to 72-h washout period was used between dosing sessions. Animals were observed by camera for ˜1 h before dosing (covering the baseline period) and up to 3 h after dosing.
# [6] = tested on: methionine/choline-deficient (MCD) diet rats; assay: Methionine/choline-deficient (MCD) diet rat model, MAP and portal pressure; settings: for Δ MAP, mean / Δ PP, mean: 100 μg/kg IA
smiles,measurement,setting,value
CC[C@H](C)[C@@H]1NC(=O)[C@H](Cc2ccccc2)NC(=O)[C@@H](N)CSSC[C@@H](C(=O)N2CCC[C@H]2C(=O)N[C@@H](CCNC(=O)[C@@H](N)CCCCNC(=O)[C@H](CCCCNC(C)=O)NC(=O)CC[C@H](NC(=O)[C@H](CCCNC(=N)N)NC(=O)[C@@H]2CCCN2C(=O)[C@H](C)NC(=O)[C@H](CC(N)=O)NC(=O)[C@H](CCC(N)=O)NC(=O)[C@H](Cc2ccccc2)NC(=O)[C@@H](Cc2ccc(OC)cc2)NC(=O)Cc2ccccc2)C(N)=O)C(=O)NCC(N)=O)NC(=O)[C@H](CC(N)=O)NC(=O)[C@H](CCC(N)=O)NC1=O [Compound 1] (I: H-CFIQNCP[Dab]G-NH2 / II: PhAc-[dY](Me)FQNAPR[isoGln]K(Ac)[εLys]; disulfide I:1-I:6; amide I:8-II:C),bioavailability,[1]; buffer about 10 mM,~13%
same,bioavailability,[1]; buffer about 100 mM,~37%
CC[C@H](C)[C@@H]1NC(=O)[C@H](Cc2ccccc2)NC(=O)[C@@H](N)CSSC[C@@H](C(=O)N2CCC[C@H]2C(=O)N[C@@H](CCNC(=O)[C@@H](N)CCCCNC(=O)[C@H](CCCCNC(C)=O)NC(=O)CC[C@H](N)C(N)=O)C(=O)NCC(N)=O)NC(=O)[C@H](CC(N)=O)NC(=O)[C@H](CCC(N)=O)NC1=O [Compound M1] (H-CFIQNCP[Dab]([εLys-X1])G-NH2; disulfide 1-6),Compound 1 converted to M1,[2],80-90%
same,"relative amount of M1 formed, more with 10 mM than with 100 mM buffer",[1]; rats,at least 15%
same,"relative amount of M1 formed, less with high vs lower buffer concentration","[1]; rats, in some cases",about 50%
same,Cmax,"[3]; iv, 0.9 mg, M1 mean Cmax",0.1 to 0.25 ng/mL
same,half-life,"[3]; iv, M1 harmonic mean terminal half-life",~4 h
same,AUC,"[3]; sc, 0.1 mg, geometric mean",2.51 ng·h/mL
same,AUC,"[3]; sc, 0.1 mg, max",3.5 ng·h/mL
same,AUC,"[3]; sc, 0.1 mg, mean",2.6 ng·h/mL
same,AUC,"[3]; sc, 0.1 mg, min",1.71 ng·h/mL
same,Cmax,"[3]; sc, 0.1 mg, M1 Cmax, geometric mean",0.9 ng/mL
same,Cmax,"[3]; sc, 0.1 mg, M1 Cmax, max",1.28 ng/mL
same,Cmax,"[3]; sc, 0.1 mg, M1 Cmax, mean",0.93 ng/mL
same,Cmax,"[3]; sc, 0.1 mg, M1 Cmax, min",0.7 ng/mL
same,half-life,"[3]; sc, 0.1 mg, M1 t1/2, harmonic mean",1.5 h
same,half-life,"[3]; sc, 0.1 mg, M1 t1/2, max",2.1 h
same,half-life,"[3]; sc, 0.1 mg, M1 t1/2, mean",1.6 h
same,half-life,"[3]; sc, 0.1 mg, M1 t1/2, min",1 h
same,Tmax,"[3]; sc, 0.1 mg, max",2 h
same,Tmax,"[3]; sc, 0.1 mg, mean",0.8 h
same,Tmax,"[3]; sc, 0.1 mg, median",0.5 h
same,Tmax,"[3]; sc, 0.1 mg, min",0.3 h
same,AUC,"[3]; sc, 0.3 mg, geometric mean",6.71 ng·h/mL
same,AUC,"[3]; sc, 0.3 mg, max",10.2 ng·h/mL
same,AUC,"[3]; sc, 0.3 mg, mean",7.55 ng·h/mL
same,AUC,"[3]; sc, 0.3 mg, min",3.2 ng·h/mL
same,AUC,"[3]; sc, 0.3 mg, min, max (n 1)",11.3 ng·h/mL
same,Cmax,"[3]; sc, 0.3 mg, M1 Cmax, geometric mean",1.63 ng/mL
same,Cmax,"[3]; sc, 0.3 mg, M1 Cmax, max",2.93 ng/mL
same,Cmax,"[3]; sc, 0.3 mg, M1 Cmax, mean",2.01 ng/mL
same,Cmax,"[3]; sc, 0.3 mg, M1 Cmax, min",0.6 ng/mL
same,half-life,"[3]; sc, 0.3 mg, M1 harmonic mean terminal half-life",1.5 to 2 h
same,half-life,"[3]; sc, 0.3 mg, M1 t1/2, harmonic mean",1.9 h
same,half-life,"[3]; sc, 0.3 mg, M1 t1/2, max",2.4 h
same,half-life,"[3]; sc, 0.3 mg, M1 t1/2, mean",2 h
same,half-life,"[3]; sc, 0.3 mg, M1 t1/2, min",1.5 h
same,half-life,"[3]; sc, 0.3 mg, M1 t1/2, min, max (n 1)",2.1 h
same,Tmax,"[3]; sc, 0.3 mg",0.5 to 1.5 h
same,Tmax,"[3]; sc, 0.3 mg, max",1.1 h
same,Tmax,"[3]; sc, 0.3 mg, mean",0.8 h
same,Tmax,"[3]; sc, 0.3 mg, median",1 h
same,Tmax,"[3]; sc, 0.3 mg, min",0.5 h
same,M1 time of Cmax,"[4]; human, iv",approx. 5 hours
same,"M1 AUC, geometric mean","[4]; human, sc, 0.1 mg",2.68 ng·h/mL
same,"M1 AUC, max","[4]; human, sc, 0.1 mg",3.10 ng·h/mL
same,"M1 AUC, mean","[4]; human, sc, 0.1 mg",2.70 ng·h/mL
same,"M1 AUC, min","[4]; human, sc, 0.1 mg",2.39; h*ng/mL
same,"M1 Cmax, geometric mean","[4]; human, sc, 0.1 mg",0.98 ng/mL
same,"M1 Cmax, max","[4]; human, sc, 0.1 mg",1.27 ng/mL
same,"M1 Cmax, mean","[4]; human, sc, 0.1 mg",1.01 ng/mL
same,"M1 Cmax, min","[4]; human, sc, 0.1 mg",0.74; ng/mL
same,"M1 t1/2, harmonic mean","[4]; human, sc, 0.1 mg",1.4 h
same,"M1 t1/2, max","[4]; human, sc, 0.1 mg",2.2 h
same,"M1 t1/2, mean","[4]; human, sc, 0.1 mg",1.6 h
same,"M1 t1/2, min","[4]; human, sc, 0.1 mg",0.8; h
same,"M1 tmax, min","[4]; human, sc, 0.1 mg",0.5; h
same,"M1 Cmax, geometric mean","[4]; human, sc, 0.3 mg",1.76 ng/mL
same,"M1 Cmax, max","[4]; human, sc, 0.3 mg",3.62 ng/mL
same,"M1 Cmax, mean","[4]; human, sc, 0.3 mg",2.24 ng/mL
same,"M1 Cmax, min","[4]; human, sc, 0.3 mg",0.86; ng/mL
same,"M1 t1/2, mean","[4]; human, sc, 0.3 mg",2.1 h
same,"M1 tmax, mean","[4]; human, sc, 0.3 mg",1.5 h
same,"M1 tmax, median","[4]; human, sc, 0.3 mg",1.5 h
same,"M1 tmax, min","[4]; human, sc, 0.3 mg",1.0; h
same,formation of M1,[4]; iv,0-15%
NCCCC[C@H](NC(=O)[C@@H]1CCCN1C(=O)[C@@H]1CSSC[C@H](NC(=O)CNC(=O)CNC(=O)CN)C(=O)N[C@@H](Cc2ccc(O)cc2)C(=O)N[C@@H](Cc2ccccc2)C(=O)N[C@@H](CCC(N)=O)C(=O)N[C@@H](CC(N)=O)C(=O)N1)C(=O)NCC(N)=O [Terlipressin] (H-GGGCYFQNCPKG-NH2; disulfide 4-9),average increase in MAP between 30 min and 5 h,[5]; IV bolus 0.03 mg/kg,6.0 mmHg
same,maximum MAP increase from baseline,[5]; IV bolus 0.03 mg/kg,29.6±3.6 mmHg
same,average increase in MAP between 30 min and 5 h,[5]; IV bolus 0.09 mg/kg,5.8 mmHg
same,maximum MAP increase from baseline,[5]; IV bolus 0.09 mg/kg,29.9±6.2 mmHg
same,average increase in MAP between 30 min and 5 h,[5]; IV bolus 0.17 mg/kg,14.6 mmHg
same,maximum MAP increase from baseline,[5]; IV bolus 0.17 mg/kg,50.8±5.6 mmHg
same,average increase in MAP between 30 min and 5 h,[5]; IV bolus 0.34 mg/kg,14.7 mmHg
same,maximum MAP increase from baseline,[5]; IV bolus 0.34 mg/kg,41.2±7.5 mmHg
same,time of maximum MAP increase,"[5]; IV bolus, across groups",5 to 30 min
same,time by which Δ MAP was negligible,"[5]; IV bolus, all groups",150 min
same,"Δ MAP, mean",[6]; 0 min,0.0 mmHg
same,"Δ PP, mean",[6]; 0 min,0.0 mmHg
same,"Δ MAP, mean",[6]; 1 min,6.1 mmHg
same,"Δ PP, mean",[6]; 1 min,−1.5 mmHg
same,"Δ MAP, mean",[6]; 2 min,10.8 mmHg
same,"Δ PP, mean",[6]; 2 min,−2.1 mmHg
same,"Δ MAP, mean",[6]; 3 min,18.1 mmHg
same,"Δ PP, mean",[6]; 3 min,−2.3 mmHg
same,"Δ MAP, mean",[6]; 5 min,26.3 mmHg
same,"Δ PP, mean",[6]; 5 min,−2.4 mmHg
same,"Δ MAP, mean",[6]; 7 min,30.1 mmHg
same,"Δ PP, mean",[6]; 7 min,−2.5 mmHg
same,"Δ MAP, mean",[6]; 10 min,32.0 mmHg
same,"Δ PP, mean",[6]; 10 min,−2.4 mmHg
same,"Δ MAP, mean",[6]; 15 min,32.9 mmHg
same,"Δ PP, mean",[6]; 15 min,−2.5 mmHg
same,"Δ MAP, mean",[6]; 20 min,33.5 mmHg
same,"Δ PP, mean",[6]; 20 min,−2.6 mmHg
same,"Δ MAP, mean",[6]; 30 min,31.7 mmHg
same,"Δ PP, mean",[6]; 30 min,−2.5 mmHg
same,"Δ MAP, mean",[6]; 60 min,13.3 mmHg
same,"Δ PP, mean",[6]; 60 min,−2.8 mmHg
same,"Δ MAP, mean",[6]; 90 min,5.2 mmHg
same,"Δ PP, mean",[6]; 90 min,−0.8 mmHg
same,highest observed absolute MAP,[6]; 100 μg/kg intra-arterial,116.6±4.1 mmHg
same,maximum ΔMAP,[6]; 100 μg/kg intra-arterial,33.5±2.6 mmHg
same,maximum ΔPP,[6]; 100 μg/kg intra-arterial,−2.8±0.8 mmHg
